# Columns and labels:
# [1] = Apparent pKa of DOPE-HC in EPC liposomes before and after insertion of PEG-DSPE; type: physicochemical
# Description: (§1) More generally, and as noted above, the method of microwave irradiation can also be used to insert a lipid-polymer (“lipopolymer”), that is a lipopolymer lacking any ligand, into a pre-formed lipid structure, such as liposomes. This general concept was illustrated in another study, described in Example 4, where liposomes having a lipid bilayer of egg phosphatidylcholine and including a fluorescent label were incubated with a micellar suspension of the lipopolymer DSPE-PEG. Two studies were done, using two different fluorescent labels, shown in FIGS. 4A-4B, incorporated into the liposome lipid bilayers. […] A small amount of one of the fluorescent lipidic labels was included in the lipids during formation of the liposomes.
# The DOPE-HC-labeled egg PC liposomes were incubated with DSPE-PEG (MW 2000 Daltons) conjugates in the presence of microwave irradiation for 90 seconds. The extent of lipopolymer insertion was calculated from the apparent pKa, as described in Example 4.
# Also in this study, a sample of the EPC liposomes was combined with free polyethylene glycol (PEG, MW 2000 Daltons) and exposed for 90 seconds to microwave irradiation in the microwave oven at 60% capacity (850 W total capacity). No insertion of free PEG (i.e., PEG lacking a lipidic or hydrophobic portion) into liposomes was observed.
# (§2) Liposomes comprised of egg phosphatidylcholine (EPC) and labeled with a pH-sensitive probe, 7-heptadecyl-4-hydroxycoumarin (C17HC) (FIG. 4A) or 1,2-dioleoyl-sn-glycero-3-phosphoethanolamine (DOPE-HC) (FIG. 4B), were prepared by thin film hydration followed by down sizing using extrusion. Briefly, EPC and one of the pH-sensitive probes were dissolved in an organic solvent in a round-bottomed flask. The solvent was removed by rotary evaporation to form a thin lipid film that was hydrated with an aqueous buffer to form multilamellar liposomes. The liposome suspension was sized by extrusion through polycarbonate membranes to an average diameter of 100 nm.
# (§3) A conjugate of DSPE-PEG (PEG MW 2000 Daltons) was obtained commercially. A micellar suspension of the DSPE-PEG conjugate was mixed with a suspension of the labeled-EPC liposomes were incubated for 90 seconds in the presence of microwave irradiation in a conventional microwave oven operated at 60% power (Spectra, 850 W capacity). The extent of conjugate insertion was determined by the shift in the apparent pKa of HC moiety.
# With respect to the liposomes labeled with DOPE-HC, the apparent pKa of DOPE-HC was calculated from the change of the ratio of excitation wavelengths 370/408 (emission wavelength 480 nm) as a function of bulk pH. Fluorescence was measured using an LS-50B luminescence spectrometer (Perkin Elmer, Norwalk, Conn.) immediately after exposure of microwave irradiation and 48 hours after exposure.
# [2] = Apparent pKa of C17HC in EPC liposomes before and after insertion of PEG-DSPE; type: physicochemical
# Description: as §1, §2, §3
# With respect to the liposomes labeled with C17HC, the apparent pKa of C17HC was calculated from the change of the ratio of excitation wavelengths 380/330 (emission wavelength 450 nm) as a function of bulk pH (Zuidam and Barenholz, Biochim Biophys Acta, 1329(2):211-22 (1997)). Fluorescence was measured using an LS-50B luminescence spectrometer (Perkin Elmer, Norwalk, Conn.). As a comparative reference, the insertion of DSPE-PEG into the same liposomes at room temperature was also measured.
# [3] = EPC with PEG-DSPE (90 sec in MW) after 48 hours
# [4] = EPC with PEG-DSPE (90 sec in MW) immediately
SMILES,apparent pKa ([1]; EPC with PEG (90 sec in MW) after 48 hours),apparent pKa ([1]; EPC with PEG (90 sec in MW) immediately),"apparent pKa [1, 3]","apparent pKa [1, 4]","apparent pKa ([1]; EPC without PEG-DSPE or 2000PEG, after 48 hours)",apparent pKa ([1]; EPC without PEG-DSPE or PEG),"apparent pKa [2, 3]","apparent pKa [2, 4]",apparent pKa ([2]; EPC with PEG-DSPE (5 hours at RT)),apparent pKa ([2]; EPC with PEG-DSPE (5 hours at RT) after 48 hours),apparent pKa ([2]; EPC without PEG-DSPE)
"CCCCCCCC/C=C\CCCCCCCC(=O)OC[C@H](COP(=O)(O)OCCN)OC(=O)CCCCCCC/C=C\CCCCCCCC [DOPE-HC, 1,2-dioleoyl-sn-glycero-3-phosphoethanolamine]",9.08,9.09,9.38,9.26,9.28,9.12,–,–,–,–,–
"CCCCCCCCCCCCCCCCCc1ccc2c(O)cc(=O)oc2c1 [C17HC, 7-heptadecyl-4-hydroxycoumarin]",–,–,–,–,–,–,10.28,9.98,10.13,10.14,9.41

# — patent US7985417B2, “Method of lipid structure preparation” (Yissum Research Development Company of the Hebrew …, priority 2004, dated 2011)
